Experimental data as given in ChEMBL document CHEMBL5143634, “Design, synthesis, and anti-influenza A virus activity evaluation of novel indole containing derivatives of triazole” (Bioorg Med Chem Lett, 2022).

Tests used:
Influenza A virus [1] = test: Antiviral activity against Influenza A virus A/WSN/33 (H1N1) infected in HEK293T cells at 10 uM by Gaussia luciferase reporter assay; type: functional; conditions: HEK-293T
Influenza A virus [2] = test: Antiviral activity against Influenza A virus A/WSN/33 (H1N1) infected in HEK293T cells by Gaussia luciferase reporter assay; type: functional, organism-based; conditions: HEK-293T
[3] = Cytotoxicity against human HEK293T cells assessed as cell viability after 48 hrs by CCK-8 assay; type: toxicity, cell-based, HEK-293T
[4] = Selectivity index, ratio of CC50 for human HEK293T cells to IC50 for antiviral activity against Influenza A virus A/WSN/33 (H1N1) infected in HEK293T cells; type: toxicity, cell-based; conditions: read-out: Ratio CC50/IC50

SMILES	inhibition at 10 µM (Influenza A virus [1]) [%]	IC50 (Influenza A virus [2]) [µM]	CC50 at 48 h [3] [µM]	selectivity ratio [4]
Cn1cc(SCc2nnc(SCc3c(F)cccc3Cl)n2-c2c(Cl)cccc2Cl)c2ccccc21	> 50	3.94	> 100	> 25.4
Cn1cc(SCc2nnc(S)n2-c2c(Cl)cccc2Cl)c2ccccc21	> 50	1.48	> 100	> 67.6
Cn1cc(SCc2nnc(SCc3ccccc3C#N)n2-c2c(Cl)cccc2Cl)c2ccccc21	> 50	3.18	78.6	24.7
Cn1cc(SCc2nnc(SCc3cc(C(F)(F)F)ccc3Cl)n2-c2c(Cl)cccc2Cl)c2ccccc21	> 50	5.1	53.8	10.6
Cn1cc(SCc2nnc(SCc3c(Cl)cccc3Cl)n2-c2c(Cl)cccc2Cl)c2ccccc21	> 50	9.1	> 100	> 11
CCOC(=O)c1c(CSc2nnc(CSc3cn(C)c4ccccc34)n2-c2c(Cl)cccc2Cl)n(C)c2cc(Br)c(OC(C)=O)cc12	> 50	2.27	> 100	> 44
Cn1cc(SCc2nnc(SCc3ccc(Cl)cc3F)n2-c2c(Cl)cccc2Cl)c2ccccc21	> 50	11.5	87.3	7.67
Cn1cc(SCc2nnc(SCc3cc(Cl)ccc3Cl)n2-c2c(Cl)cccc2Cl)c2ccccc21	> 50	5.12	> 100	> 19.5
Cn1cc(SCc2nnc(SCc3ccccc3Cl)n2-c2c(Cl)cccc2Cl)c2ccccc21	> 50	7.46	49.6	6.65
Cn1cc(SCc2nnc(SCc3ccccc3OC(F)(F)F)n2-c2c(Cl)cccc2Cl)c2ccccc21	> 50	1.41	> 100	> 70.9
Cn1cc(SCc2nnc(SCc3ccc(Cl)c(F)c3)n2-c2c(Cl)cccc2Cl)c2ccccc21	> 50	7.12	> 100	> 14
Cn1cc(SCc2nnc(SCc3cccc(Cl)c3Cl)n2-c2c(Cl)cccc2Cl)c2ccccc21	> 50	2.14	> 100	> 46.7
Cn1cc(SCc2nnc(SCc3cccc(Cl)c3F)n2-c2c(Cl)cccc2Cl)c2ccccc21	> 50	4.21	> 100	> 23.8
NC(=O)c1ncn([C@@H]2O[C@H](CO)[C@@H](O)[C@H]2O)n1 [RIBAVIRIN]	–	27.8	> 100	–
Cn1cc(SCc2nnc(SCc3cc(Cl)ccc3F)n2-c2c(Cl)cccc2Cl)c2ccccc21	> 50	2.83	> 100	> 35.3
Cn1cc(SCc2nnc(SCc3ccccc3)n2-c2c(Cl)cccc2Cl)c2ccccc21	> 50	1.34	> 100	> 74.6
Cn1cc(SCc2nnc(SCc3ccc(Cl)cc3C(F)(F)F)n2-c2c(Cl)cccc2Cl)c2ccccc21	> 50	2.59	56.5	21.8
Cn1cc(SCc2nnc(SCc3ccc(OC(F)(F)F)c(Cl)c3)n2-c2c(Cl)cccc2Cl)c2ccccc21	> 50	7.49	77.7	10.4
Cn1cc(SCc2nnc(SCc3ccc(Cl)cc3Cl)n2-c2c(Cl)cccc2Cl)c2ccccc21	> 50	6.19	> 100	> 16.2
